# Experiments:
# [1] = Saturation vapour pressure of C5K at minimum service temperatures; type: physicochemical; details: for PC5K pressure equivalent at 20° C. to the saturation vapour pressure: formula (II)
# Description: Table I below indicates the saturation vapour pressures, noted PVSC5K, which C5K has at the temperatures of 0, −5, −10, −15, −20, −25, −30, −35 and −40° C., which are the minimum service temperatures typically found for medium- and high-voltage electrical devices.
# It also indicates the pressure values, noted PC5K, which correspond at 20° C. to these saturation vapour pressures, and which are obtained by applying formula (II) above.
# [2] = humans and animals; cited from earlier work
Structure (SMILES),PVSC5K saturation vapour pressure ([1]; 0° C.) [kPa],PC5K pressure equivalent at 20° C. to the saturation vapour pressure ([1]; 0° C.) [kPa],PVSC5K saturation vapour pressure ([1]; −5° C.) [kPa],PC5K pressure equivalent at 20° C. to the saturation vapour pressure ([1]; −5° C.) [kPa],PVSC5K saturation vapour pressure ([1]; −10° C.) [kPa],PC5K pressure equivalent at 20° C. to the saturation vapour pressure ([1]; −10° C.) [kPa],PVSC5K saturation vapour pressure ([1]; −15° C.) [kPa],PC5K pressure equivalent at 20° C. to the saturation vapour pressure ([1]; −15° C.) [kPa],PVSC5K saturation vapour pressure ([1]; −20° C.) [kPa],PC5K pressure equivalent at 20° C. to the saturation vapour pressure ([1]; −20° C.) [kPa],PVSC5K saturation vapour pressure ([1]; −25° C.) [kPa],PC5K pressure equivalent at 20° C. to the saturation vapour pressure ([1]; −25° C.) [kPa],PVSC5K saturation vapour pressure ([1]; −30° C.) [kPa],PC5K pressure equivalent at 20° C. to the saturation vapour pressure ([1]; −30° C.) [kPa],PVSC5K saturation vapour pressure ([1]; −35° C.) [kPa],PC5K pressure equivalent at 20° C. to the saturation vapour pressure ([1]; −35° C.) [kPa],PVSC5K saturation vapour pressure ([1]; −40° C.) [kPa],PC5K pressure equivalent at 20° C. to the saturation vapour pressure ([1]; −40° C.) [kPa],Toxicity [2]
"O=C(C(F)(F)F)C(F)(C(F)(F)F)C(F)(F)F [C5K, decafluoro-2-methylbutan-3-one]",41.3,44.3,33.6,36.7,27.1,30.2,21.7,24.7,17.3,20.0,13.6,16.0,10.6,12.7,8.1,10.0,6.2,7.8,–
"FS(F)(F)(F)(F)F [SF6, sulphur hexafluoride]",–,–,–,–,–,–,–,–,–,–,–,–,–,–,–,–,–,–,non-toxic for humans and animals
